# Values quoted from earlier work as cited in patent US20060246505A1, “Modulation of the synthesis of insulin” (priority 2003, published 2006).
# System: signalling pathways that trigger transcription
# Details: glucose-triggered resynthesis of insulin in beta cells; prior-art statement
smiles,measurement,value
C[S+]([O-])c1ccc(-c2nc(-c3ccncc3)c(-c3ccc(F)cc3)[nH]2)cc1 (stereo not shown) [SB 203580],inhibition of the signalling pathways that trigger transcription (resynthesis of insulin),can be inhibited
